Species: Rattus norvegicus
Test: DrugMatrix - Regimen: Daily Repeat
Assay type: toxicity, organism-based, Sprague-Dawley
Design: regimen Daily Repeat, gender Male, age 6-8 weeks
Details: in vivo, po, route oral GAVAGE, […]; for URIC ACID / ALANINE AMINOTRANSFERASE / ALKALINE PHOSPHATASE / ASPARTATE AMINOTRANSFERASE / BLOOD UREA NITROGEN / CARBON DIOXIDE / CHLORIDE / CHOLESTEROL / CREATINE PHOSPHOKINASE / CREATININE / GLUCOSE / LACTATE DEHYDROGENASE / LIPASE / PHOSPHORUS / POTASSIUM / SODIUM / TOTAL BILIRUBIN / TOTAL PROTEIN: tissue Plasma; for ABSOLUTE BASOPHIL / ABSOLUTE EOSINOPHIL / ABSOLUTE LYMPHOCYTE / ABSOLUTE MONOCYTE / ABSOLUTE SEGMENTED NEUTROPHIL / BASOPHIL / EOSINOPHIL / ERYTHROCYTE COUNT / HEMATOCRIT / HEMOGLOBIN / LEUKOCYTE COUNT / LYMPHOCYTE / MEAN CORPUSCULAR HEMOGLOBIN / MEAN CORPUSCULAR HEMOGLOBIN CONCENTRATION / MEAN CORPUSCULAR VOLUME / MONOCYTE / NEUTROPHIL / NUCLEATED RED BLOOD CELLS / PLATELET COUNT: tissue Blood
[1] = 10 mg/kg, 120 h, dose level Low, time 5 day
[2] = 1100 mg/kg, 72 h, dose level High, time 3 day
[3] = 1100 mg/kg, 120 h, dose level High, time 5 day

CCOC(=O)C1=C(C)NC(C)=C(C(=O)OC)C1c1cccc([N+](=O)[O-])c1 (stereo unspecified) [NITRENDIPINE]
URIC ACID (10 mg/kg, 72 h, dose level Low, time 3 day): 0.7 mg/dL | ABSOLUTE BASOPHIL [1]: 0 CELLS/uL | ABSOLUTE EOSINOPHIL [1]: 0 CELLS/uL | ABSOLUTE LYMPHOCYTE [1]: 10446 CELLS/uL | ABSOLUTE MONOCYTE [1]: 116 CELLS/uL | ABSOLUTE SEGMENTED NEUTROPHIL [1]: 1038 CELLS/uL | BASOPHIL [1]: 0% | EOSINOPHIL [1]: 0% | ERYTHROCYTE COUNT [1]: 5.06 x10E6/uL | HEMATOCRIT [1]: 32.77% | HEMOGLOBIN [1]: 12.73 G/DL | LEUKOCYTE COUNT [1]: 11.6 x10E3/uL | LYMPHOCYTE [1]: 90% | MEAN CORPUSCULAR HEMOGLOBIN [1]: 25.2 pg | MEAN CORPUSCULAR HEMOGLOBIN CONCENTRATION [1]: 38.87 G/DL | MEAN CORPUSCULAR VOLUME [1]: 64.8 fL | MONOCYTE [1]: 1% | NEUTROPHIL [1]: 9% | NUCLEATED RED BLOOD CELLS [1]: 0 /100WBC | PLATELET COUNT [1]: 1057 x10E3/uL | ALANINE AMINOTRANSFERASE [1]: 72 u/L | ALKALINE PHOSPHATASE [1]: 422.33 u/L | ASPARTATE AMINOTRANSFERASE [1]: 98 u/L | BLOOD UREA NITROGEN [1]: 15 mg/dL | CARBON DIOXIDE [1]: 32.33 mmol/L | CHLORIDE [1]: 101 MEQ/L | CHOLESTEROL [1]: 70.67 mg/dL | CREATINE PHOSPHOKINASE [1]: 376.67 u/L | CREATININE [1]: 0.17 mg/dL | GLUCOSE [1]: 143 mg/dL | LACTATE DEHYDROGENASE [1]: 166.67 u/L | LIPASE [1]: 9.67 u/L | PHOSPHORUS [1]: 10.6 mg/dL | POTASSIUM [1]: 5.57 MEQ/L | SODIUM [1]: 144.07 MEQ/L | TOTAL BILIRUBIN [1]: 0.23 mg/dL | TOTAL PROTEIN [1]: 6.03 G/DL | URIC ACID [1]: 0.53 mg/dL | ABSOLUTE BASOPHIL [2]: 0 CELLS/uL | ABSOLUTE EOSINOPHIL [2]: 21.67 CELLS/uL | ABSOLUTE LYMPHOCYTE [2]: 8591 CELLS/uL | ABSOLUTE MONOCYTE [2]: 68 CELLS/uL | ABSOLUTE SEGMENTED NEUTROPHIL [2]: 719.33 CELLS/uL | BASOPHIL [2]: 0% | EOSINOPHIL [2]: 0.33% | ERYTHROCYTE COUNT [2]: 5.96 x10E6/uL | HEMATOCRIT [2]: 36.87% | HEMOGLOBIN [2]: 14.27 G/DL | LEUKOCYTE COUNT [2]: 9.4 x10E3/uL | LYMPHOCYTE [2]: 91% | MEAN CORPUSCULAR HEMOGLOBIN [2]: 23.93 pg | MEAN CORPUSCULAR VOLUME [2]: 61.87 fL | MONOCYTE [2]: 0.67% | NEUTROPHIL [2]: 8% | NUCLEATED RED BLOOD CELLS [2]: 0 /100WBC | PLATELET COUNT [2]: 1329.67 x10E3/uL | ALANINE AMINOTRANSFERASE [2]: 96.67 u/L | ALKALINE PHOSPHATASE [2]: 346 u/L | ASPARTATE AMINOTRANSFERASE [2]: 88.67 u/L | BLOOD UREA NITROGEN [2]: 13.33 mg/dL | CARBON DIOXIDE [2]: 30 mmol/L | CHLORIDE [2]: 103.33 MEQ/L | CHOLESTEROL [2]: 57.33 mg/dL | CREATINE PHOSPHOKINASE [2]: 323.33 u/L | CREATININE [2]: 0.14 mg/dL | GLUCOSE [2]: 160 mg/dL | LACTATE DEHYDROGENASE [2]: 142.67 u/L | LIPASE [2]: 9.67 u/L | PHOSPHORUS [2]: 9.8 mg/dL | POTASSIUM [2]: 4.65 MEQ/L | SODIUM [2]: 145.2 MEQ/L | TOTAL BILIRUBIN [2]: 0.2 mg/dL | TOTAL PROTEIN [2]: 5.2 G/DL | URIC ACID [2]: 0.4 mg/dL | ABSOLUTE BASOPHIL [3]: 0 CELLS/uL | ABSOLUTE EOSINOPHIL [3]: 24.33 CELLS/uL | ABSOLUTE LYMPHOCYTE [3]: 5730.33 CELLS/uL | ABSOLUTE MONOCYTE [3]: 63.33 CELLS/uL | ABSOLUTE SEGMENTED NEUTROPHIL [3]: 515.33 CELLS/uL | BASOPHIL [3]: 0% | EOSINOPHIL [3]: 0.33% | ERYTHROCYTE COUNT [3]: 6.09 x10E6/uL | HEMATOCRIT [3]: 37.57% | HEMOGLOBIN [3]: 14.23 G/DL | LEUKOCYTE COUNT [3]: 6.33 x10E3/uL | LYMPHOCYTE [3]: 90.67% | MEAN CORPUSCULAR HEMOGLOBIN [3]: 23.4 pg | MEAN CORPUSCULAR HEMOGLOBIN CONCENTRATION [3]: 37.87 G/DL | MEAN CORPUSCULAR VOLUME [3]: 61.7 fL | MONOCYTE [3]: 1% | NEUTROPHIL [3]: 8% | NUCLEATED RED BLOOD CELLS [3]: 0 /100WBC | PLATELET COUNT [3]: 1353.67 x10E3/uL | ALANINE AMINOTRANSFERASE [3]: 65.67 u/L | ALKALINE PHOSPHATASE [3]: 214.33 u/L | ASPARTATE AMINOTRANSFERASE [3]: 85.67 u/L | BLOOD UREA NITROGEN [3]: 11.67 mg/dL | CARBON DIOXIDE [3]: 29 mmol/L | CHLORIDE [3]: 102.67 MEQ/L | CHOLESTEROL [3]: 58.33 mg/dL | CREATINE PHOSPHOKINASE [3]: 328.33 u/L | CREATININE [3]: 0.15 mg/dL | GLUCOSE [3]: 133.67 mg/dL | LACTATE DEHYDROGENASE [3]: 156.33 u/L | LIPASE [3]: 11.67 u/L | PHOSPHORUS [3]: 8.93 mg/dL | POTASSIUM [3]: 4.8 MEQ/L | SODIUM [3]: 147.07 MEQ/L | TOTAL BILIRUBIN [3]: 0.2 mg/dL | TOTAL PROTEIN [3]: 5.4 G/DL | URIC ACID [3]: 0.47 mg/dL

— ChEMBL document CHEMBL3885881, “DrugMatrix”
